The conditions of data set [1]: cited from earlier work.
The subject of data set [2] is murine macrophage-like line P388D1. In words: acidification rate of P388D1 cells trapped in etched wells. Format: cell-based. The method, then:
For many types of mammalian cells, a confluent monolayer (equivalent to about 10^7 cells/mL) commonly produces acidification rates within a factor of two of 100 μV/s. At 59 mV per pH and medium buffer capacity of 1 mM, this corresponds to a calculated net rate of H+ production of ~1·10^8 /s for a typical cell. The metabolic sources of these protons depend on the nutrients in the culture medium and the metabolic pathways that are active in the cells. Some insight into this can be gained using auxiliary biochemical measurements and specific metabolic poisons.
It is reversible, with a recovery time of about 20 min. after the removal of the uncoupler. Dose-response experiments show a maximum stimulation of the acidification rate near 2-5 μM CCCP, Presumably the mechanism is a combination of increased CO2 production and the stimulation of glycolysis to maintain homeostasis.

The subject of data set [3] is normal human keratinocytes. In words: metabolic rate of normal human keratinocytes exposed to irritants in the micro flow chamber (silicon sensor). The following applies: for IC50: Homo sapiens, Keratinocyte, read-out: -log10 (MRD50) (converted). Format: cell-based.
A further data set concerns PGE1 receptor. In words: metabolic rate of M1C-2 cells stimulated through the PGE1 receptor. Format: cell-based, mouse. The following applies: PGE1, FIG. 27.
The subject of data set [4] is MDCK cells. The data set can be described thus: metabolic rate of MDCK cells grown on a cover slip. Format: cell-based, canine. The following applies: for inhibition at 10000 µM: 10 mM theophylline.
Data set [5] relates to MDCK cells. The data set can be described thus: steady-state potential of MDCK cells grown on the silicon sensor surface. The data set is classed as cell-based, canine. From the text:
It contains information on the pH of the small aqueous compartment between the cells and the sensor, and it contains information about trans-cellularpotentials, which are essentially batteries in series with the electronic circuit of the sensor.
The steadystate potential reported by the sensor (with fluid flow on) decreased gradually from the time the sensor was activated until the PMA was introduced. […] This signal is a composite of the trans-cellular potential and the sub-cellular pH (changes in the latter corresponding to 59 mV per pH unit).

The subject of data set [6] is MDCK cells. The data set can be described thus: metabolic rate of MDCK cells grown on the silicon sensor surface. The data set is classed as cell-based, canine.
Data set [7] has as its system MES-SA. The following applies: previously characterized; cited from earlier work.
Another data set relates to Dx5. The data set can be described thus: cytotoxicity in Dx5 in the silicon microphysiometer. Conditions: for time at which cytotoxicity is manifest: 100 μM, Dx5.
Data set [8] relates to MES-SA. In words: cytotoxicity in MES-SA in the silicon microphysiometer.
Data set [9] concerns MDCK cells. The data set can be described thus: cells. The following applies: Canis lupus familiaris.
Method: MDCK cells in a confluent T-75 flask were trypsinized in order to remove them from their growth container. The cells were centrifuged at 2000 RPM for 5 minutes and the supernatant was discarded. The cells were resuspended in 5 mL of medium and centrifuged for 5 minutes at 3000 RPM. […] The cells were centrifuged for 3 minutes at 3000 RPM to pellet the cells. A 2 μL aliquot was taken directly from the cell pellet and spread over an approximate area of 40 mm^2 on the silicon sensor surface (in a partially assembled chamber).
The next data set has as its system Proteus mirabilis. The data set is classed as cell-based. The following applies: carbon source in medium; FIG. 22. From the text:
While this method of serial delivery of selective substrates has certain potential advantages, parallel delivery of selective substrates to separate catches of bacteria could also be useful under certain circumstances. Furthermore, if bacteria are used for screening for antibiotic susceptibility or antibiotic activity, parallel delivery to separate catches may well be more appropriate because of potential problems of intereactions of drugs.
The bacteria, E. coli and Proteus mirabilis , were prepared as suspensions of about 5×10^8 cells/mL in a growth medium and then diluted into a sterile test medium containing glucose (Bactopeptone, 2 g/L; NACl, 5 g/L; K2 HPO4, 1.7 mM; glucose, 1 g/L; pH 7.3 ). With the controlling electrode piston in the raised position, as disclosed in pending U.S. patent application, Ser. No. 876,925, filed Jun. 20, 1986, now U.S. Pat. No. 5,292,846 one mL of bacterial suspension containing a known number of bacteria was flowed through the device such that the cells were retained adjacent to the silicon sensor surface by a Nucleopore membrane situated parallel to the surface. The cells were pulsed with the same glucose containing test medium, the piston was then lowered to decrease the volume surrounding the cells, and the change in pH due to bacterial metabolism was monitored. […] After lowering the piston the pH change was again monitored. […]

In another data set the test system is E. coli. The data set can be described thus: response of E. coli to antibiotics in the flow cell. Conditions: FIG. 24. The data set is classed as cell-based.
[10] abbreviates: classification by in vivo tests such as the Draize test.
The mark [11] stands for this setting: concentrations necessary to depress metabolism of keratinocytes.

Like-named read-outs stand apart in the source and are kept apart here.

In the case of `CC(C)=O` [Acetone], the “In-Vivo Irritancy” value in data set [1] (setting [10]) is “Moderate-mild”.

For `N#CC(C#N)=NNc1cccc(Cl)c1` [CCCP, carbonylcyanide chlorophenylhydrazone], the “recovery time after removal of the uncoupler” value in data set [2] (20 μmM CCCP) is on record as “about 20 min”. Moreover, in data set [2] (20 μmM CCCP, FIG. 42), the “stimulation of acidification rate” value is recorded as “prompt, faster than the resolution of the apparatus”. Besides, the “concentration of maximum stimulation of the acidification rate” value in data set [2] (dose-response experiments) was 2 to 5 µM.

With `C[S+](C)[O-]` [Dimethyl sulfoxide], in data set [3] (separate test, FIG. 13), the “recovery of metabolic rate after washout of irritant” value (shortened to “recovery … of irritant”) is “recover from DMSO but not from ethanol was shown”. In addition, the “In-Vivo Irritancy” value in data set [1] (in vivo) is on record as “Mild”.

Take `CCO` [Ethanol]: the “recovery … of irritant” value in [3] (FIG. 12) is “substantial recovery”; in [3] (separate test, FIG. 13), “not from ethanol”. For the same molecule, the “In-Vivo Irritancy” value in [1] (setting [10]) was “Moderate-mild”.

On to `CO` [Methanol], for which, in [1] (setting [10]), the “In-Vivo Irritancy” value is listed as “Moderate-mild”.

`CCCCCCCCCCCCOS(=O)(=O)[O-].[Na+]` [Na dodecyl sulfate, sodium dodecyl sulfate]: in [3], the IC50 was 0.126 mM. The “In-Vivo Irritancy” value in data set [1] (setting [10]) is reported as “Severe-moderate”.

In the case of `CCCCC[C@H](O)/C=C/[C@H]1[C@H](O)CC(=O)[C@@H]1CCCCCCC(=O)O` [PGE1, prostaglandin E1], in the data set on PGE1 receptor, the “increase in metabolic rate at peak” value worked out at 80%, the time of peak entry was “approximately 1000 seconds” and the “time of return to base line metabolic rates” value is 4000 s.

In the case of `CCCCCCCCCCCCCC(=O)O[C@@H]1[C@@H](C)[C@@]2(O)[C@@H](C=C(CO)C[C@]3(O)C(=O)C(C)=C[C@@H]23)[C@@H]2C(C)(C)[C@]12OC(C)=O` [PMA, Phorbol myristate acetate], the “metabolic rate upon addition of PMA” value with MDCK cells [4] (cover slip, data not shown) is listed as “increase in metabolic rate”. For the same molecule, in the data set with MDCK cells [5] (10 ng/ml PMA), the “steady-state potential reported by the sensor” value is “dropped quickly to a minimum” and the “time to minimum of steady-state potential” value was “about forty”. For the same molecule, the “steady-state potential after removal of PMA” value with MDCK cells [5] (by the end of the experiment) is “returned to a value near its initial one”. Also, in the data set with MDCK cells [6] (10 ng/ml PMA), the “rise in metabolic rate at the peak” value is “more than a doubling” and the “time of peak of metabolic rate” value was “near an hour later”.

`CC(O)CO` (stereo not shown) [Propylene glycol]: the “In-Vivo Irritancy” value in [1] (in vivo) is on record as “Mild”.

Regarding `N=C(N)NC(=O)c1nc(Cl)c(N)nc1N` [amiloride], the activation at 1500 µM with MDCK cells [4] (Canis lupus familiaris, MDCK, 1.5 mM amiloride, gradual, read-out: increase of metabolic rate above medium only) was at most 16%. Also, the “metabolic rate after exposure was ceased” value with MDCK cells [4] (after 1.5 mM amiloride) was “returned to the original control value and then gradually continued to decline”. Further, the inhibition at 1500 µM in the data set with MDCK cells [6] (Canis lupus familiaris, MDCK, 1.5 mM amiloride, immediate, read-out: decrease in apparent metabolic rate vs. medium only) is 20%.

Take `COc1cccc2c1C(=O)c1c(O)c3c(c(O)c1C2=O)C[C@@](O)(C(=O)CO)C[C@@H]3O[C@H]1C[C@H](N)[C@H](O)[C@H](C)O1` [doxorubicin]: the “sensitivity of MES-SA” value with MES-SA [7] is recorded as “sensitive”. Moreover, the “time at which decreased acidification rates are evident” value is above 50 h in the data set on Dx5 (1 μM doxorubicin, Dx5, FIG. 45) and 15 h in the data set on MES-SA [8] (1 μM doxorubicin, FIG. 45). For the same molecule, the results for the “time at which cytotoxicity is manifest” value in the data set with Dx5 and in the data set on MES-SA [8] (100 μM) were 2.5 h and 0.5 h, respectively.

For the molecule `CNC[C@H](O)c1ccc(O)c(O)c1` [epinephrine], in the data set on MDCK cells [9] (read-out: decrease in metabolic rate vs. medium only), the inhibition at 208 µM turned out to be 3%. Besides, in the data set with MDCK cells [9] (read-out: decrease in metabolic rate vs. rate immediately after removal of the higher concentration), the inhibition at 3 µM was found to be 4.5%. The activation at 3 µM was determined as 7% with MDCK cells [6] (Canis lupus familiaris, MDCK, read-out: additional increase in metabolic rate on re-exposure); 20% with MDCK cells [6] (Canis lupus familiaris, MDCK, read-out: increase in metabolic rate); 20% with MDCK cells [6] (Canis lupus familiaris, MDCK, read-out: increase in metabolic rate over the control rate on re-exposure); 12% in the data set on MDCK cells [6] (Canis lupus familiaris, MDCK, read-out: metabolic rate above control rate after removal).

`O=C[C@H](O)[C@@H](O)[C@H](O)[C@H](O)CO` [glucose]: the “change of pH” value in the data set with Proteus mirabilis is reported as “decreased the pH”.

Take `CCCCO` [n-Butanol, 1-butanol]: the IC50 in data set [3] (setting [11]) was 20 mM. Moreover, in [1] (setting [10]), the “In-Vivo Irritancy” value is listed as “Moderate”.

For the molecule `CC[C@H](C)[C@@H]1NC(=O)[C@H](Cc2ccc(O)cc2)NC(=O)[C@@H](N)CSSC[C@@H](C(=O)N2CCC[C@H]2C(=O)N[C@@H](CC(C)C)C(=O)NCC(N)=O)NC(=O)[C@H](CC(N)=O)NC(=O)[C@H](CCC(N)=O)NC1=O` [oxytocin], in the data set on MDCK cells [4], the “immediate change in metabolic rate” value is “did not result in any immediate change”, the “recovery of metabolic rate after removal” value was found to be 100% and the “time to full recovery of metabolic rate after removal” value is “up to 10 minutes”. Besides, in the data set with MDCK cells [4] (mdck, 1 µM), the “gradual decrease of metabolic rate” value is on record as “up to 10%”.

As for `CC1(C)S[C@@H]2[C@H](NC(=O)Cc3ccccc3)C(=O)N2[C@H]1C(=O)O` [penicillin], the response to antibiotic result in the data set on E. coli is “do not respond”.

Consider `Cn1c(=O)c2[nH]cnc2n(C)c1=O` [theophylline], for which the inhibition at 10000 µM in the data set on MDCK cells [4] (Canis lupus familiaris, MDCK, initial, read-out: decrease in metabolic rate) turned out to be 59%; with MDCK cells [4] (Canis lupus familiaris, MDCK, read-out: metabolic rate below the control value after gradual increase) it was 48%; in the data set on MDCK cells [6] (Canis lupus familiaris, MDCK, 10 mM theophylline, read-out: decrease in metabolic rate vs. control value), 47%. In addition, the activation at 10000 µM with MDCK cells [4] (Canis lupus familiaris, MDCK, after 10 mM theophylline, read-out: increase of metabolic rate over the control value on removal) was determined as 30%. Also, the activation at 111 µM with MDCK cells [6] (Canis lupus familiaris, MDCK, read-out: increase in metabolic rate vs. control values on removal, after 111 μM theophylline) was determined as 28%. The inhibition at 111 µM with MDCK cells [6] (Canis lupus familiaris, MDCK, 111 μM theophylline (therapeutic level), read-out: decrease in metabolic rate) is around 10%. In addition, the “time of return of metabolic rate to the control value” in the data set on MDCK cells [6] (after removal of 10 mM theophylline) is on record as “ten”.

Regarding `NC(N)=O` [urea], in the data set with Proteus mirabilis, the “change of pH” value is listed as “increases the pH”.

Turning to `NC(=O)CC[C@@H]1NC(=O)[C@H](Cc2ccccc2)NC(=O)[C@H](Cc2ccc(O)cc2)NC(=O)[C@@H](N)CSSC[C@@H](C(=O)N2CCC[C@H]2C(=O)N[C@@H](CCCN=C(N)N)C(=O)NCC(N)=O)NC(=O)[C@H](CC(N)=O)NC1=O` [vasopressin], in the data set with MDCK cells [4], the “increase in metabolic rate” value was “no increase in metabolic rate was observed”. Besides, in the data set on MDCK cells [6], the “increase in metabolic rate over control values” was 14%, the “increase in metabolic rate over the rate in 0.1 μM vasopressin” value is recorded as 19% and the “increase over the control rate value” stood at 42%.

Consider `CC[C@]1(O)C[C@H]2CN(CCc3c([nH]c4ccccc34)[C@@](C(=O)OC)(c3cc4c(cc3OC)N(C=O)[C@H]3[C@@](O)(C(=O)OC)[C@H](OC(C)=O)[C@]5(CC)C=CCN6CC[C@]43[C@@H]65)C2)C1` [vincristine], for which the “sensitivity of MES-SA” value in the data set with MES-SA [7] is listed as “sensitive”. Besides, the “time at which cytotoxicity is manifest” value is 10 h in the data set with Dx5 and 5 h with MES-SA [8] (100 μM vincristine, FIG. 46).

For the molecule benzalkonium chloride [Benzalkonium Cl], the “decrease of cellular metabolic rate between two successive administrations” value in data set [3] (30 μg/ml) is given as “real decrease of cellular metabolic rate between the two administrations”. Further, in data set [3] (FIG. 12), the “recovery … of irritant” value was “no recovery was obtained”. In data set [3] (setting [11]), the “-log10 (MRD50)” value was 4.1. Moreover, the “In-Vivo Irritancy” value in data set [1] (setting [10]) is on record as “Severe”.

As for polymyxin, in the data set on E. coli, the response to antibiotic result is “do respond”.

The values are drawn from US5496697A, “Methods and apparatus for detecting the effect of cell affecting agents on living cells” (priority 1993, dated 1996).
